Columns and labels:
human diaphorase = human diaphorase (Homo sapiens, UniProt P15559); test: Non-cellular reductive release of luciferin (luciferin detection reagent with reductase and NADH); assay type: biochemical; settings: after 1 hour, FIG. 3
Text: (§1) This property may provide an additional advantage in ADCs where it is critical that payload is not released outside of target cells. The observations are as follows. When D-luciferin is derivatized on the 6′ hydroxyl by addition of the TMQ linker, its activity as a substrate for luciferase is blocked (PBI-4312), but free D-luciferin that is fully active with luciferase is readily released
[drawing 143] from a luciferin-TMQ derivative when subjected to reducing conditions inside or outside of a cell. However, release of D-luciferin from a protein-TMQ-luciferin conjugate by an extracellular reductive mechanism was substantially diminished compared to luciferin-TMQ. In other words, the protein moiety of the conjugate stabilizes the luciferin payload against reductive release from the TMQ linker in a non-cellular environment. Non-cellular reducing conditions include an aqueous reducing agent solution (e.g. DTT) or a reductase reaction mixture (FIG. 3). This was true for two conjugates with a luciferin payload as well as a luciferin-TMQ conjugate with bovine serum albumin (BSA). Whereas the reaction conditions produced substantial amounts of light with PBI-4312 (>900,000 RLU after 1 hour), only minimal signals were produced from similar amounts of the protein conjugates (<800 RLUs after 1 hour). […]

luciferase = test: Activity as a substrate for luciferase; assay type: biochemical; settings: D-luciferin derivatized on the 6′ hydroxyl with TMQ linker
Text: as §1

Sequence of human diaphorase (P15559 whole entry): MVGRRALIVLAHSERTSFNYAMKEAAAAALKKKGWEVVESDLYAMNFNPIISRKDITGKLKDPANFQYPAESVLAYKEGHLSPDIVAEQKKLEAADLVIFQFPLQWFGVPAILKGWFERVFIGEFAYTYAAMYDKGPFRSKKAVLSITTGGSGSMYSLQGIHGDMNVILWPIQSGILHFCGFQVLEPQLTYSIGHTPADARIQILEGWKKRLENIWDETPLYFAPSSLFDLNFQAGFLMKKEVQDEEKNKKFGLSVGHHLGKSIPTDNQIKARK

SMILES: CC1=C(C)C(=O)C(C(C)(C)CC(=O)N(C)CCN(C)C(=O)Oc2ccc3nc(C4=N[C@@H](C(=O)O)CS4)sc3c2)=C(C)C1=O [PBI-4312]
- light produced (luciferin luminescence) (human diaphorase): > 900,000 RLU
- activity as a substrate for luciferase (luciferase): blocked

From patent US11857638B2, “Quinone-containing conjugates” (PROMEGA CORPORATION, priority 2018, dated 2024)
